# Activity calls are given as the source filed them. The rule behind the calls is not given here.
# Tests used:
# Hepatocyte [1] = assay: Drug metabolism in human hepatocytes assessed as N-dealkylated pyrazole metabolite formation; assay type: ADME, cell-based
# Hepatocyte [2] = assay: Drug metabolism in mouse hepatocytes assessed as N-dealkylated ethylamide metabolite formation; assay type: ADME, cell-based
# Cytochrome P450 1A2 = biological target: T1, Cytochrome P450 1A2 (Homo sapiens, UniProt P05177); assay: Inhibition of human CYP1A2 by fluorescence assay; assay type: ADME
# T1 sequence (P05177 whole entry): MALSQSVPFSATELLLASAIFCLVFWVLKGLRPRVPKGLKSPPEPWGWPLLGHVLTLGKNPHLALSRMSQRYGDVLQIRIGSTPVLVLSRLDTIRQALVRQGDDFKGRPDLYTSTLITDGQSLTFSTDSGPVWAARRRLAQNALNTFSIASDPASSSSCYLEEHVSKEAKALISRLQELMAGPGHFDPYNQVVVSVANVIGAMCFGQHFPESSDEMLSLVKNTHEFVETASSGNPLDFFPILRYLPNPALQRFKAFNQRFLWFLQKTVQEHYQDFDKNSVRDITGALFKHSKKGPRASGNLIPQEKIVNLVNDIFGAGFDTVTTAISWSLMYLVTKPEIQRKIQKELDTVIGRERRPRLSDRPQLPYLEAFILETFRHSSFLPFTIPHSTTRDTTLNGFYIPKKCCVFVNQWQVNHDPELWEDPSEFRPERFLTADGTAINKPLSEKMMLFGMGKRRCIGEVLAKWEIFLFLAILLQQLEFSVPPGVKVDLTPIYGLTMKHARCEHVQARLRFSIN
# [3] = Kinetic solubility of the compound after 1 hr by CLND assay; assay type: physicochemical; conditions: for solubility kinetic at 1 h: read-out: Kinetic_solubility
# Cytochrome P450 2D6 = Cytochrome P450 2D6 (Homo sapiens, UniProt P10635); assay: Inhibition of human CYP2D6 by fluorescence assay; assay type: ADME
# Enterococcus faecalis = assay: Antibacterial activity against Enterococcus faecalis assessed as growth inhibition by broth microdilution assay; assay type: functional
# [4] = Lipophilicity, log D of the compound at pH 7.4 by chromatographic analysis; assay type: physicochemical; conditions: buffer
# Liver microsome = assay: Intrinsic clearance in human liver microsomes at 0.5 uM; assay type: ADME
# [5] = Half life in human liver microsomes at 0.5 uM; assay type: ADME
# Streptococcus pneumoniae = assay: Antibacterial activity against Streptococcus pneumoniae assessed as growth inhibition by broth microdilution assay; assay type: functional
# [6] = tested on: Mycobacterium tuberculosis; assay: Antitubercular activity against wild type Mycobacterium tuberculosis H37Rv ATCC 25618 assessed as growth inhibition after 6 days by resazurin dye-based assay; assay type: functional; conditions: H37Rv ATCC 25618, 144 h
# Hepatocyte [7] = assay: Drug metabolism in human hepatocytes assessed as N-dealkylated ethylamide metabolite formation; assay type: ADME, cell-based
# Cytochrome P450 2C9 = Cytochrome P450 2C9 (Homo sapiens, UniProt P11712); assay: Inhibition of human CYP2C9 by fluorescence assay; assay type: ADME
# Cytochrome P450 3A4 = Cytochrome P450 3A4 (Homo sapiens, UniProt P08684); assay: Inhibition of human CYP3A4 by fluorescence assay; assay type: ADME
# Hepatocyte [8] = assay: Drug metabolism in mouse hepatocytes assessed as oxidized metabolite formation; assay type: ADME, cell-based
# [9] = Intrinsic clearance in mouse hepatocytes at 1 uM; assay type: ADME, cell-based, Hepatocyte; conditions: read-out: CLH
# Escherichia coli = assay: Antibacterial activity against Escherichia coli assessed as growth inhibition by broth microdilution assay; assay type: functional
# [10] = Half life in mouse hepatocytes at 10 uM; assay type: ADME, cell-based, Hepatocyte
# Haemophilus influenzae = assay: Antibacterial activity against Haemophilus influenzae assessed as growth inhibition by broth microdilution assay; assay type: functional
# Hepatocyte [11] = assay: Drug metabolism in human hepatocytes assessed as oxidized metabolite formation; assay type: ADME, cell-based
# Hepatocyte [12] = assay: Drug metabolism in mouse hepatocytes assessed as N-dealkylated pyrazole metabolite formation; assay type: ADME, cell-based
# Cytochrome P450 2C19 = Cytochrome P450 2C19 (Homo sapiens, UniProt P33261); assay: Inhibition of human CYP2C19 by fluorescence assay; assay type: ADME
# [13] = Plasma protein binding in mouse at 1 uM after 4 to 6 hrs by LC-MS/MS analysis; assay type: ADME, cell-free; conditions: read-out: PPB (converted)
# [14] = Half life in human hepatocytes at 10 uM; assay type: ADME, cell-based, Hepatocyte
# HepG2 = assay: Cytotoxicity against human HepG2 cells after 48 hrs by resazurin dye-based fluorescence assay; assay type: cell-based; conditions: HepG2, 48 h
# Moraxella catarrhalis = assay: Antibacterial activity against Moraxella catarrhalis assessed as growth inhibition by broth microdilution assay; assay type: functional
# Streptococcus pyogenes = assay: Antibacterial activity against Streptococcus pyogenes assessed as growth inhibition by broth microdilution assay; assay type: functional
# [15] = Half life in mouse liver microsomes at 0.5 uM; assay type: ADME, Microsome
# Enterococcus faecium = assay: Antibacterial activity against Enterococcus faecium assessed as growth inhibition by broth microdilution assay; assay type: functional
# [16] = Intrinsic clearance in human hepatocytes at 1 uM; assay type: ADME, cell-based, Hepatocyte; conditions: read-out: CLH
# [17] = Permeability of the compound by artificial membrane permeability assay; assay type: physicochemical; conditions: PAMPA; read-out: permeability
# [18] = biological target: Voltage-gated inwardly rectifying potassium channel KCNH2 (Homo sapiens, UniProt Q12809); assay: Displacement of [3H]-dofetilide from human ERG after 1 hr by liquid scintillation counting analysis
# [19] = biological target: T2, Enoyl-[acyl-carrier-protein] reductase [NADH] (Mycobacterium tuberculosis, UniProt P9WGR1); assay: Inhibition of Mycobacterium tuberculosis full length biotinylated InhA (270 amino acids) using DDCoA as substrate assessed as NADH oxidation by fluorimetric analysis
# T2 sequence (P9WGR1 whole entry): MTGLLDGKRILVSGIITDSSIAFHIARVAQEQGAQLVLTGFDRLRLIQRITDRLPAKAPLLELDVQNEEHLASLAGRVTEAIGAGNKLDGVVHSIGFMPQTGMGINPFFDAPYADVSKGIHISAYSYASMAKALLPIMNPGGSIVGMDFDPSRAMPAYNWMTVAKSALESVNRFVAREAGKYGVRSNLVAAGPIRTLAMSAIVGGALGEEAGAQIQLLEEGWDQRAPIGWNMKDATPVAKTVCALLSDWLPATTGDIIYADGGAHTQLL
# [20] = Intrinsic clearance in mouse liver microsomes at 0.5 uM; assay type: ADME, Microsome
# [21] = Cmax in C57BL/6J mouse at 1000 mg/kg, po measured at 24 hrs; assay type: ADME, organism-based; set-up: dose 1000 mg/kg, route oral; conditions: in vivo
# [22] = tested on: Mycobacterium tuberculosis; assay: Antitubercular activity against Mycobacterium tuberculosis H37Rv infected in C57BL/6 mouse assessed as reduction of bacterial CFU in lung at 500 to 1000 mg/kg, po administered for 8 days measured 24 hrs post last dose; assay type: functional, organism-based
# [23] = Half life in C57BL/6J mouse at 4 mg/kg, iv; assay type: ADME, organism-based; set-up: dose 4 mg/kg, route intravenous; conditions: in vivo
# [24] = Clearance in C57BL/6J mouse at 4 mg/kg, iv; assay type: ADME, organism-based; set-up: dose 4 mg/kg, route intravenous; conditions: in vivo
# [25] = Plasma protein binding in human at 1 uM after 4 to 6 hrs by LC-MS/MS analysis; assay type: ADME, cell-free; conditions: read-out: PPB (converted)
# [26] = tested on: Mycobacterium tuberculosis; assay: Bactericidal activity against Mycobacterium tuberculosis H37Rv assessed as log reduction of bacterial CFU at 20 times MIC after 1 week relative to control; assay type: functional
# [27] = Cmax in C57BL/6J mouse at 50 mg/kg, po; assay type: ADME, organism-based; set-up: dose 50 mg/kg, route oral; conditions: in vivo
# [28] = Tmax in C57BL/6J mouse at 50 mg/kg, po; assay type: ADME, organism-based; set-up: dose 50 mg/kg, route oral; conditions: in vivo
# [29] = Volume of distribution in C57BL/6J mouse at 4 mg/kg, iv; assay type: ADME, organism-based; set-up: dose 4 mg/kg, route intravenous; conditions: in vivo
# [30] = Total AUC in C57BL/6J mouse at 1000 mg/kg, po measured at 24 hrs; assay type: ADME, organism-based; set-up: time AUCmax, dose 1000 mg/kg, route oral; conditions: in vivo
# [31] = AUC (0 to infinity) in C57BL/6J mouse at 50 mg/kg, po; assay type: ADME, organism-based; set-up: time infinity, dose 50 mg/kg, route oral; conditions: plasma
# [32] = Oral bioavailability in C57BL/6J mouse at 50 mg/kg; assay type: ADME, organism-based; conditions: in vivo
# [33] = tested on: Mycobacterium tuberculosis; assay: Antitubercular activity against Mycobacterium tuberculosis infected in human THP1 cells assessed as growth inhibition after 5 days by luciferase reporter gene assay; assay type: functional, THP-1; conditions: 120 h
# [34] = tested on: Mycobacterium tuberculosis; assay: Antitubercular activity against Mycobacterium tuberculosis H37Rv infected in C57BL/6 mouse assessed as reduction of bacterial CFU in lung at 30 mg/kg, po administered for 8 days measured 24 hrs post last dose relative to control; assay type: functional
# [35] = tested on: Mycobacterium tuberculosis; assay: Bactericidal activity against Mycobacterium tuberculosis H37Rv assessed as log reduction of bacterial CFU at 1.2 ug/mL after 1 week; assay type: functional, organism-based
# [36] = Drug degradation assessed as formation of 2-((2S,4R)-1-(benzofuran-3-carbonyl)-4-(3-ethyl-1-methyl-1H-pyrazole-5-carboxamido)pyrrolidine-2-carboxamido)acetic acid; assay type: physicochemical
# Chain of Cytochrome P450 3A4 (P08684 whole entry): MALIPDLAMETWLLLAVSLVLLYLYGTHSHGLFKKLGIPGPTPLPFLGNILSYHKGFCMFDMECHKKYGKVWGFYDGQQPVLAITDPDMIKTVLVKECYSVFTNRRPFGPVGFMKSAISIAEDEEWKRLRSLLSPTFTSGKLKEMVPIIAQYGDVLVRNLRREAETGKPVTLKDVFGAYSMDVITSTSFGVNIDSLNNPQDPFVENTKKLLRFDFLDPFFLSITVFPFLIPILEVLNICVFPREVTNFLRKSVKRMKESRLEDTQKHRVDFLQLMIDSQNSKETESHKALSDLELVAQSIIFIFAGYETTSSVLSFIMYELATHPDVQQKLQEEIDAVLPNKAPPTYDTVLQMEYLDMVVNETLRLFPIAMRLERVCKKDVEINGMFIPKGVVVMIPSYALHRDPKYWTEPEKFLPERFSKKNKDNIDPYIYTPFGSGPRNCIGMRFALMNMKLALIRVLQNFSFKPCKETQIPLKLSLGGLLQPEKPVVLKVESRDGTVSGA
# Chain of Cytochrome P450 2C9 (P11712 whole entry): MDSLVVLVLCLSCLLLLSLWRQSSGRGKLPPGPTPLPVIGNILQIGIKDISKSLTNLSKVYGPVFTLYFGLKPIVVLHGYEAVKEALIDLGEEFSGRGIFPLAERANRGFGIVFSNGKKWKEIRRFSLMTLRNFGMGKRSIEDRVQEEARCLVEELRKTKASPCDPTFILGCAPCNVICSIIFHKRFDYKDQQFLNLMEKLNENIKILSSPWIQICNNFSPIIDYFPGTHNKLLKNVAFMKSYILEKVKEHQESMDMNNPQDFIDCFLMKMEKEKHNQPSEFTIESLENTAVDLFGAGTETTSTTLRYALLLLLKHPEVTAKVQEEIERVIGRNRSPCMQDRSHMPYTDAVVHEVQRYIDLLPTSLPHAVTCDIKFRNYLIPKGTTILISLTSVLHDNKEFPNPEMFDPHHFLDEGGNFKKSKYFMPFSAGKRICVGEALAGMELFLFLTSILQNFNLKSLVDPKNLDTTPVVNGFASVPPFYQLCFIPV
# Chain of Cytochrome P450 2D6 (P10635 whole entry): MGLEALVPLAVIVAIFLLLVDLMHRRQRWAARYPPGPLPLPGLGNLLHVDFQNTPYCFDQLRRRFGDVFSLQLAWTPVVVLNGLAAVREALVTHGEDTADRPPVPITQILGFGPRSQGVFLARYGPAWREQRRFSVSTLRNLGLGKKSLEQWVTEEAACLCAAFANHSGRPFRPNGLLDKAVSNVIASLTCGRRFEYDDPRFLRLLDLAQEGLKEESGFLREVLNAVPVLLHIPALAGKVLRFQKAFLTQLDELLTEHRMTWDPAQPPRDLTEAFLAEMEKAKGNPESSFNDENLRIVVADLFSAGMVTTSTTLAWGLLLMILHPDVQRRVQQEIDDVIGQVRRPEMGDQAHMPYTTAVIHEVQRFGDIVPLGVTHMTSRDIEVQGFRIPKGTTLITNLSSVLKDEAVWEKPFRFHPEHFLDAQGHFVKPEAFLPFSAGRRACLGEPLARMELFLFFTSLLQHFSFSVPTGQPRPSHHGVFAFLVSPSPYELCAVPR
# Chain of Cytochrome P450 2C19 (P33261 whole entry): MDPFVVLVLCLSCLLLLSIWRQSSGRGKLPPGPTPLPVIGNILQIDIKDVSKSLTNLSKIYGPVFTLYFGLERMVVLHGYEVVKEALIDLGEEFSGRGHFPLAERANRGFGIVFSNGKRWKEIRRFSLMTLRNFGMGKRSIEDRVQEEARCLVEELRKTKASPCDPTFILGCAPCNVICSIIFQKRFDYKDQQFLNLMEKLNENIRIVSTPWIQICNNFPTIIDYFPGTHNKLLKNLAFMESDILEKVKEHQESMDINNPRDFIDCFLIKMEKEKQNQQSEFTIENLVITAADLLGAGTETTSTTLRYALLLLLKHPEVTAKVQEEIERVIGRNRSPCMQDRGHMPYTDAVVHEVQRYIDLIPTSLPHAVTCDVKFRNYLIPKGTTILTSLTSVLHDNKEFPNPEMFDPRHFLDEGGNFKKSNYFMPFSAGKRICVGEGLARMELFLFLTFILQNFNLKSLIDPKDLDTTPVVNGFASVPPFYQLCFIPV
# Chain of Voltage-gated inwardly rectifying potassium channel KCNH2 (Q12809 whole entry): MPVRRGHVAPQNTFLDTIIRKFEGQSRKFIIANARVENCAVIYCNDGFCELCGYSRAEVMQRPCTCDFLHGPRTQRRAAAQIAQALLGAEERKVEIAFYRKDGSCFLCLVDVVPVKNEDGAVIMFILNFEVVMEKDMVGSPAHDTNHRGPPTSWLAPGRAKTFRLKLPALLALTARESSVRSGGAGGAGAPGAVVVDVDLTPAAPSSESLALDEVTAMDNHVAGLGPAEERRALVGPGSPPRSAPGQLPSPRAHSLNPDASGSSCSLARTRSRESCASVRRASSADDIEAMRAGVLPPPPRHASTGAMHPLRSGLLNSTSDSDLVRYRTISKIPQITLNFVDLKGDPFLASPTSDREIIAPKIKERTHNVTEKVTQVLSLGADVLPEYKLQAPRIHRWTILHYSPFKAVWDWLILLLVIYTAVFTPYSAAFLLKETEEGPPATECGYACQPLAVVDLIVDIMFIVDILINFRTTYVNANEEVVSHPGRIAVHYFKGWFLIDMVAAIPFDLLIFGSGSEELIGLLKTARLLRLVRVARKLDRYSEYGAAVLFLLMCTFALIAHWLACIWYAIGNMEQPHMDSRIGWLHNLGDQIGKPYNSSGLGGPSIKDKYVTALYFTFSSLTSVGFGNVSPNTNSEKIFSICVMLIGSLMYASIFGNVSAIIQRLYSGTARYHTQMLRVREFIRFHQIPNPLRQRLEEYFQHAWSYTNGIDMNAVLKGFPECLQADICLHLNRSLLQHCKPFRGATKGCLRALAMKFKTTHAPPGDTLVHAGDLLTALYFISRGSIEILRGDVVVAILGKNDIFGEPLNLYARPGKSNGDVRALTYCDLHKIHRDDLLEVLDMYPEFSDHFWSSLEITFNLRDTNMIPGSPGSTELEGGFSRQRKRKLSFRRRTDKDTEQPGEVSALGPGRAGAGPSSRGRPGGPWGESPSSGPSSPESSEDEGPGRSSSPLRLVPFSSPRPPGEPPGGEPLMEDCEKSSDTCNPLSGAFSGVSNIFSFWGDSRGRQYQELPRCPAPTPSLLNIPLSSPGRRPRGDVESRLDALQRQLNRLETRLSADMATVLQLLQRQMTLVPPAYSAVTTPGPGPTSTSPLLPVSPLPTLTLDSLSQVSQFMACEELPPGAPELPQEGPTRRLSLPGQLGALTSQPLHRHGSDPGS
smiles,measurement,setting,value
CCNC(=O)[C@@H]1C[C@@H](NC(=O)c2cc(CC)nn2C)CN1C(=O)c1coc2ccccc12,Drug metabolism,Hepatocyte [1],Active
same,Drug metabolism,Hepatocyte [2],Active
same,IC50,Cytochrome P450 1A2,> 50000 nM
same,solubility kinetic at 1 h,[3],> 448 µM
same,IC50,Cytochrome P450 2D6,> 50000 nM
same,MIC,Enterococcus faecalis,> 64 µM
same,chromatographic logD,[4],2.93
same,CLH,Liver microsome,0.7 mL/min/g
same,half-life at 0.5 µM,[5],> 30 min
same,MIC,Streptococcus pneumoniae,> 64 µM
same,MIC,[6],8 µM
same,Drug metabolism,Hepatocyte [7],Active
same,IC50,Cytochrome P450 2C9,> 50000 nM
same,IC50,Cytochrome P450 3A4,> 50000 nM
same,Drug metabolism,Hepatocyte [8],Active
same,CLint scaled at 1 µM,[9],538 mL/min/kg
same,MIC,Escherichia coli,> 64 µM
same,half-life at 10 µM,[10],27 min
same,MIC,Haemophilus influenzae,> 64 µM
same,Drug metabolism,Hepatocyte [11],Active
same,Drug metabolism,Hepatocyte [12],Active
same,IC50,Cytochrome P450 2C19,> 50000 nM
same,fraction unbound at 1 µM,[13],0.144
same,half-life at 10 µM,[14],227 min
same,IC50,HepG2,> 50000 nM
same,MIC,Moraxella catarrhalis,> 64 µM
same,MIC,Streptococcus pyogenes,> 64 µM
same,half-life at 0.5 µM,[15],28 min
same,MIC,Enterococcus faecium,> 64 µM
same,CLint scaled at 1 µM,[16],19 mL/min/kg
same,Papp,[17],13 ×10⁻⁶ cm/s
same,IC50,[18],> 50000 nM
same,IC50,[19],34 nM
same,CLH,[20],2.6 mL/min/g
CCc1cc(C(=O)N[C@@H]2C[C@@H](C(N)=O)N(C(=O)c3coc4ccccc34)C2)n(CC)n1,IC50,Cytochrome P450 1A2,> 50000 nM
same,solubility kinetic at 1 h,[3],> 441 µM
same,IC50,Cytochrome P450 2D6,> 50000 nM
same,chromatographic logD,[4],2.94
same,CLH,Liver microsome,< 0.3 mL/min/g
same,half-life at 0.5 µM,[5],> 30 min
same,MIC90,[6],0.5 µM
same,Cmax,[21],23000 ng/mL
same,IC50,Cytochrome P450 2C9,> 50000 nM
same,Activity,[22],inactive
same,IC50,Cytochrome P450 3A4,> 50000 nM
same,half-life,[23],28.2 min
same,clearance,[24],85.5 mL/min/kg
same,fraction unbound at 1 µM,[25],0.013
same,IC50,Cytochrome P450 2C19,> 50000 nM
same,FC,[26],>2
same,fraction unbound at 1 µM,[13],0.153
same,Cmax,[27],1750 ng/mL
same,half-life at 0.5 µM,[15],> 30 min
same,Tmax,[28],49.8 min
same,Vd,[29],3.68 L/kg
same,AUC at 24 h,[30],73700 ng·h/mL
same,Papp,[17],7.8 ×10⁻⁶ cm/s
same,AUC(0-inf),[31],3590 ng·h/mL
same,IC50,[19],4 nM
same,CLH,[20],< 0.3 mL/min/g
same,bioavailability,[32],35.6%
same,MIC,[33],0.24 µM
COc1c(N2C[C@@H]3CCCN[C@@H]3C2)c(F)cc2c(=O)c(C(=O)O)cn(C3CC3)c12 [MOXIFLOXACIN],fold change (FC),[34],3.48
same,Activity,[35],Active
CCc1cc(C(=O)N[C@@H]2C[C@@H](C(=O)NCC(=O)OC)N(C(=O)c3coc4ccccc34)C2)n(C)n1,Kinetic_solubility,[3]; 1 h,soluble
same,MIC90,[6],0.5 µM
same,Stability,[36],Unstable
same,IC50,[19],5 nM
COC(=O)CNC(=O)[C@@H]1C[C@@H](NC(=O)c2cc(C3CC3)nn2C)CN1C(=O)c1coc2ccccc12,MIC90,[6],1 µM
same,IC50,[19],15 nM
CCc1cc(C(=O)N[C@@H]2C[C@@H](C(=O)NCc3cnc(C)cn3)N(C(=O)c3coc4ccccc34)C2)n(C)n1,MIC90,[6],8 µM
same,IC50,[19],22 nM
CCc1cc(C(=O)N[C@@H]2C[C@@H](C(=O)NCc3ccccc3)N(C(=O)c3coc4ccccc34)C2)n(C)n1,MIC90,[6],4 µM
same,IC50,[19],41 nM
CCc1cc(C(=O)N[C@@H]2C[C@@H](C(=O)Nc3ccn(C)n3)N(C(=O)c3coc4ccccc34)C2)n(C)n1,MIC90,[6],4 µM
same,IC50,[19],7 nM

# Reference: ChEMBL document CHEMBL3124857, “Encoded library technology as a source of hits for the discovery and lead optimization of a potent and selective class of bactericidal direct inhibitors of Mycobacterium tuberculosis InhA” (J Med Chem, 2014)
